# According to US8563257B2, “Sensitive and rapid methods of using chimeric receptors to identify autoimmune disease and assess disease severity” (Diagnostic Hybrids, Inc., priority 2000, dated 2013):
# Several values for one entry are separate records, joined by “and”; a condition that tells them apart may be missing. Equal entries are not always repeated. Entries after “also recorded” stand apart in the source; their conditions may differ.
# Key:
# [1] = tested on: CHO-RMc4luc cells; experiment: Alternate glucocorticoids vs. dexamethasone in the non-starved CHO-RMc4 assay; assay type: cell-based, Chinese hamster; conditions: for signal intensity (RLU) compared to 40 μM dexamethasone: FIG. 17
# Experimental: The data was collected in accordance with the protocol outlined in Example 17. The data was calculated as the difference (Δ) in RLU values or SRR % values for each glucocorticoid (GC) concentration by subtracting the RLU value or SRR % value for the Normal control at that concentration from the RLU value or SRR % value for the Positive control at that concentration, respectively.
# Four GCs were examined in this study: i) Prednisone (Sigma); ii) Hydrocortisone (Sigma); iii) Fluticasone Propionate (Sigma); and iv) Cortisone (Sigma). A stock concentration (100 mM) of each GC was made in DMSO. 1:10 (10 mM) and 1:100 (1 mM) dilutions, in DMSO, were then made from the 100 mM stock. All DMSO/GC stocks were clear with no visible precipitate.
# Growth Media containing different concentrations of each GC were made as follows: i) 100 μM GC Medium: 5 μL of 100 mM GC Stock+5 mL SR097 (w/o Dex); ii) 50 μM GC Medium: 2.5 μL of 100 mM GC Stock+5 mL SR097 (w/o Dex); iii) 10 μM GC Medium: 5 μL of 10 mM GC Stock+5 mL SR097 (w/o Dex); iii) 1 μM GC Medium: 5 μL of 1 mM GC Stock+5 mL SR097 (w/o Dex); and iv) 0.1 μM GC Medium: 0.5 μL of 1 mM GC Stock+5 mL SR097 (w/o Dex). […] Additional controls included Growth Medium containing 1 μl/ml dimethylsulfoxide (DMSO) as a solvent control and Growth Medium without any glucocorticoids.
# Each assay was performed by using two (2) microwell plates for each glucocorticoid tested. The sample layouts for each plate are identified below: […]
# [2] = tested on: CHO-RMc4luc cells; experiment: Effect of dexamethasone on starved CHO-RMc4luc cells (luciferase); assay type: cell-based, Chinese hamster; conditions: for % of S/B, Patient #18 Serum: 0 uM = 100; for RLU, Patient #18 Serum, Average / S/B, Patient #18 Serum / RLU, Patient #18 Serum, Test 1-3 / RLU, Reference Serum, Avg / RLU, Reference Serum, Test 1-3: starved cells; for RLU, Patient #18 Serum, Test 1-3 / RLU, Reference Serum, Test 1-3: listed as DEX
# Experimental: CHO-Rluc (041307A) and CHO-RMc4luc (062707, P8, 3e6/ml) cells were each brought up in 5 ml CHO growth media.
# The cells were then rinsed with reaction buffer and serum (diluted 1:11) was added to 100 μl of reaction buffer already in the well. Serums used were: i) reference 121506R; ii) PC 121506P; and iii) patient #18 TSI serum.
# After 4 hours of induction the plates were lysed with 75 ul of Bright Glo®, lysed for 5 minutes, and then read on a Veritas luminometer.
# [3] = glucocorticoid 0.1 μM in Growth Medium
# [4] = glucocorticoid 1 μM in Growth Medium
# [5] = glucocorticoid 10 μM in Growth Medium
# [6] = glucocorticoid 50 μM in Growth Medium
# [7] = glucocorticoid 100 μM in Growth Medium
# [8] = 40 μM in Growth Medium (control)
smiles,measurement,setting,value
C[C@]12C=CC(=O)C=C1CC[C@@H]1[C@@H]2C(=O)C[C@@]2(C)[C@H]1CC[C@]2(O)C(=O)CO [Prednisone],signal intensity (RLU) compared to 40 μM dexamethasone,[1],equal signal intensities
same,Δ (positive - normal) RLU,[1]; [3],8717 RLU
same,Δ (positive - normal) SRR % s,[1]; [3],150%
same,Δ (positive - normal) RLU,[1]; [4],8219 RLU
same,Δ (positive - normal) SRR % s,[1]; [4],133%
same,Δ (positive - normal) RLU,[1]; [5],8429 RLU
same,Δ (positive - normal) SRR % s,[1]; [5],142%
same,Δ (positive - normal) RLU,[1]; [6],8107 RLU
same,Δ (positive - normal) SRR % s,[1]; [6],165%
C[C@]12CCC(=O)C=C1CC[C@@H]1[C@@H]2[C@@H](O)C[C@@]2(C)[C@H]1CC[C@]2(O)C(=O)CO [Hydrocortisone],signal intensity (RLU) compared to 40 μM dexamethasone,[1],equivalent to dexamethasone; also recorded: equal signal intensities
same,Δ (positive - normal) RLU,[1]; [3],9889 RLU
same,Δ (positive - normal) SRR % s,[1]; [3],158%
same,Δ (positive - normal) RLU,[1]; [4],9149 RLU
same,Δ (positive - normal) SRR % s,[1]; [4],155%
same,Δ (positive - normal) RLU,[1]; [5],9757 RLU
same,Δ (positive - normal) SRR % s,[1]; [5],153%
same,Δ (positive - normal) RLU,[1]; [6],8950 RLU
same,Δ (positive - normal) SRR % s,[1]; [6],178%
same,Δ (positive - normal) RLU,[1]; [7],8348 RLU
same,Δ (positive - normal) SRR % s,[1]; [7],180%
"CCC(=O)O[C@]1(C(=O)SCF)[C@H](C)C[C@H]2[C@@H]3C[C@H](F)C4=CC(=O)C=C[C@]4(C)[C@@]3(F)[C@@H](O)C[C@@]21C [Fluticasone Proprionate, Fluticasone Propionate]",signal intensity (RLU) compared to 40 μM dexamethasone,[1],equal signal intensities
same,Δ (positive - normal) RLU,[1]; [3],9768 RLU
same,Δ (positive - normal) SRR % s,[1]; [3],161%
same,Δ (positive - normal) RLU,[1]; [4],8806 RLU
same,Δ (positive - normal) SRR % s,[1]; [4],148%
same,Δ (positive - normal) RLU,[1]; [5],8774 RLU
same,Δ (positive - normal) SRR % s,[1]; [5],168%
same,Δ (positive - normal) RLU,[1]; [6],6996 RLU
same,Δ (positive - normal) SRR % s,[1]; [6],137%
same,Δ (positive - normal) RLU,[1]; [7],6366 RLU
same,Δ (positive - normal) SRR % s,[1]; [7],155%
C[C@]12CCC(=O)C=C1CC[C@@H]1[C@@H]2C(=O)C[C@@]2(C)[C@H]1CC[C@]2(O)C(=O)CO [Cortisone],signal intensity (RLU) compared to 40 μM dexamethasone,[1],equivalent to dexamethasone; also recorded: equal signal intensities
same,Δ (positive - normal) RLU,[1]; [3],10494 RLU
same,Δ (positive - normal) SRR % s,[1]; [3],169%
same,Δ (positive - normal) RLU,[1]; [4],9474 RLU
same,Δ (positive - normal) SRR % s,[1]; [4],151%
same,Δ (positive - normal) RLU,[1]; [5],9847 RLU
same,Δ (positive - normal) SRR % s,[1]; [5],151%
same,Δ (positive - normal) RLU,[1]; [6],8738 RLU
same,Δ (positive - normal) SRR % s,[1]; [6],162%
same,Δ (positive - normal) RLU,[1]; [7],8106 RLU
same,Δ (positive - normal) SRR % s,[1]; [7],176%
"C[C@@H]1C[C@H]2[C@@H]3CCC4=CC(=O)C=C[C@]4(C)[C@@]3(F)[C@@H](O)C[C@]2(C)[C@@]1(O)C(=O)CO [Dexamethasone, dexamethasone]","% of S/B, Patient #18 Serum",[2]; DEX 12.5 uM,180%
same,"RLU, Patient #18 Serum, Average",[2]; DEX 12.5 uM,5165 RLU
same,"S/B, Patient #18 Serum",[2]; DEX 12.5 uM,39.8
same,"RLU, Patient #18 Serum, Test 1-3",[2]; DEX 12.5 uM,4710 RLU and 5456 RLU and 5330 RLU
same,"% of S/B, Patient #18 Serum",[2]; DEX 25 uM,183%
same,"RLU, Patient #18 Serum, Average",[2]; DEX 25 uM,5194 RLU
same,"RLU, Reference Serum, Avg",[2]; DEX 25 uM,127 RLU
same,"S/B, Patient #18 Serum",[2]; DEX 25 uM,40.6
same,"RLU, Patient #18 Serum, Test 1-3",[2]; DEX 25 uM,5172 RLU and 5151 RLU and 5260 RLU
same,"RLU, Reference Serum, Test 1-3",[2]; DEX 25 uM,129 RLU and 132 RLU
same,"% of S/B, Patient #18 Serum",[2]; DEX 40 uM,182%
same,"RLU, Patient #18 Serum, Average",[2]; DEX 40 uM,5092 RLU
same,"RLU, Reference Serum, Avg",[2]; DEX 40 uM,126 RLU
same,"S/B, Patient #18 Serum",[2]; DEX 40 uM,40.4
same,"RLU, Patient #18 Serum, Test 1-3",[2]; DEX 40 uM,5039 RLU and 5198 RLU and 5038 RLU
same,"RLU, Reference Serum, Test 1-3",[2]; DEX 40 uM,128 RLU
same,"% of S/B, Patient #18 Serum",[2]; DEX 50 uM,181%
same,"RLU, Patient #18 Serum, Average",[2]; DEX 50 uM,5023 RLU
same,"RLU, Reference Serum, Avg",[2]; DEX 50 uM,125 RLU
same,"S/B, Patient #18 Serum",[2]; DEX 50 uM,40.1
same,"RLU, Patient #18 Serum, Test 1-3",[2]; DEX 50 uM,4861 RLU and 5298 RLU and 4909 RLU
same,"RLU, Reference Serum, Test 1-3",[2]; DEX 50 uM,135 RLU
same,"% of S/B, Patient #18 Serum",[2]; DEX 100 uM,140%
same,"RLU, Patient #18 Serum, Average",[2]; DEX 100 uM,3492 RLU
same,"RLU, Reference Serum, Avg",[2]; DEX 100 uM,112 RLU
same,"S/B, Patient #18 Serum",[2]; DEX 100 uM,31.1
same,"RLU, Patient #18 Serum, Test 1-3",[2]; DEX 100 uM,3542 RLU and 3414 RLU and 3521 RLU
same,"RLU, Reference Serum, Avg",[2]; DEX 12. uM,129 RLU
same,"RLU, Reference Serum, Test 1-3",[2]; DEX 12. uM,129 RLU and 141 RLU
same,Δ (positive - normal) RLU,[1]; [8],9375 RLU
same,Δ (positive - normal) SRR % s,[1]; [8],282%
